Reference: US12332245B2, “Cancer biomarkers and methods of use thereof” (THE REGENTS OF THE UNIVERSITY OF CALIFORNIA, priority 2006, dated 2025)

Assays:
Type in all cases: cell-based, human
vHMEC-ras0.5 cells [1] = assay: TGFβ-induced EMT in vHMEC-ras0.5 cells (immunofluorescence, flow cytometry, immunoblot, MSP)
Protocol: Having observed that extracellular signaling induced by 10% serum can cooperate with intracellular ras activation to induce EMT in vHMEC, it was then asked whether appropriate growth factor stimulation could induce EMT in the immortalized vHMEC-ras0.5 cells which had maintained their epithelial morphology. […] Thiery et al. (2003) Curr. Opinion Cell. Biol. 15:740; and Zavadil et al. (2005) Oncogene 24:5764. vHMEC-ras0.5 cells were treated with TGFβ and the expression of molecular markers associated with EMT was assessed by immunofluorescence, flow cytometry, and immunoblot analysis. […] Coincident with the loss of epithelial marker expression was an upregulation in the expression of the mesenchymal markers, twist (FIG. 18B), N-cadherin, and fibronectin (FIG. 18C).
Unlike the EMT observed in cells exposed to 10% serum, TGFβ-induced EMT is reversible. […] As expected, the promoter of the epithelial marker 14-3-3σ remained unmethylated in all the epithelial cells, and methylated in the human mammary fibroblasts, which were used as a positive control (FIG. 18D).
FIGS. 18A-D. TGFβ induces EMT in vHMEC-ras0.5 cells without modulating methylation of E-cadherin. A. Inununofluorescence analysis. Cells were treated with 2 ng/ml TGFβ for 72 h, and immunostained for pancytokeratin, E-cadherin, β 1-integrin, and vimentin. B. Flow cytometric analysis of twist expression before (green curve) and after (purple curve) treatment with 2 ng/ml TGFβ for 72 h. C. Immunoblot analysis of the mesenchymal markers fibronectin (Fn) and N-cadherin (N-cad) was performed on cell lysates prepared from vHMEC-ras0.5 that were either untreated (−) or treated (+) with 2 ng/ml TGFβ for 72 h. Cell lystates prepared from human mammary fibroblasts were used as a positive control (C) and actin is shown as a loading control. D. MSP analysis of E-cadherin and 14-3 3σ was conducted on the PCR products of bisulfite-treated DNA isolated from vHMEC-ras0.5 untreated (−TGF) or treated (+TGF) with 2 ng/ml TGFβ for 96 h as described in FIGS. 3B and C. Bisulfite-modified DNA from MCF7 and MDA-MB-231 cells was used as unmethylated and methylated control templates, respectively for E-cadherin, while bisulfite-modified DNA from MDA-MB-231 and human mammary fibroblasts (HMF) served as unmethylated and methylated controls for 14-3-3s. Also included is a water control (no template).

COX-2 in HMEC = assay: exogenous induction of COX-2 by TGF-β in HMEC with modulated p16/Rb pathway (immunoblot)
From the text: DNA constructs. DNA constructs used in this study are as follows: pMSCV, pMSCV-shp16 (G. Hannon and S. Lowe, Cold Spring Harbor Laboratories); pLXSN, pLXSN-HPV 16 E7 (D. Galloway, Fred Hutchinson Cancer Center); pMKO, pMKO-shRb (W. Hahn, Harvard Medical School and Dana-Farber Cancer Institute), pBabe; pBabe-cyclinD1 (O. Tetsu, UCSF Cancer Center), pBabe, pBabe-hTert (K. Collins, UC-Berkeley); LXSP and LXSP-COX-2 (D. Dixon, Vanderbilt University Medical Center). All constructs were packaged in Phoenix A cells for viral propagation. To generate stable cell lines we exposed HMEC, vHMEC or breast cell lines to viral supernatant containing 8 μg/ml Polybrene (Sigma). Cells containing stable DNA integration were selected in medium containing 4 μg/ml puromycin (pMSCV, pMKO, and LXSP constructs), 50 μg/ml G418 (LXSN constructs) or 20 μg/nil hygromycin (pBabe). Where indicated, cell lines were imaged using a standard phase contrast microscopy.
Western Blot. Total protein (15-20 μg) lysates were electrophoretically separated by SDS-PAGE and transferred onto polyvinylidene difluoride (PVDF) membranes according to standard procedures. Antisera against COX-2 (160107; Cayman Chemical, MI), Rb (554136, BD Pharmingen), p16 (16P07 Neomarkers), E2F1 (sc-251 Santa Cruz), cyclinD1 (2926, Cell Signaling), p53 (se-126, Santa Cruz), p21 (SC-6246 Santa Cruz) were used according to manufacturers protocols.
To test this hypothesis, specific members of the p16/Rb pathway were genetically modulated, and the levels of COX-2 protein expression compared to HMEC that maintain p16 expression were determined. First, basal and induced COX-2 protein levels in HMEC lacking p16 activity were compared.
To extend this analysis, we determined how other alterations within this pathway, mutations common in cancer, affect COX-2 expression. We modulated the p16/Rb pathway by three additional methods, cyclin D1 overexpression, pRb downregulation, and expression of a viral oncoprotein, HPV 16-E7 and determined the effect on basal and exogenously-induced COX-2 protein levels. To determine if cyclin D1 induces and/or sensitizes cells to COX-2 induction, we measured COX-2 protein levels in HMEC engineered to stably express cyclin D1 under the regulation of an independent, constitutively active promoter. […] The absence of E2F1 upregulation following cyclin D1 overexpression supports our finding that Rb remains active. […] To determine if inactivation of Rb is sufficient for the upregulation of COX-2, we infected HMEC with a retrovirus containing a short hairpin RNA against Rb (shRb) and determined COX-2 protein levels in cells from two independent experiments. […] Similar to results obtained with Rb genetic silencing, expression of the human papilloma virus 16-E7 (HPV 16-E7) elevated both basal and induced levels of COX-2 protein (FIG. 12D). Stable expression of HPV16-E7 was performed in cells generated from three independent reduction mammoplasties. Mammary epithelial cells expressing HPV 16-E7 show downregulation of Rb and thus inactivation of Rb and consequently upregulation of E2F1 (FIG. 12D). HPV16-E7 is well characterized for its role as a transforming oncoprotein through targeted degradation of all three members of Rb family (Rb, p107 and p130) and driving E2F-dependent transactivation.
FIG. 12A-E. Deregulation of distinct members of the p16/cyclin D1/Rb pathway differentially regulate COX-2. […]

vHMEC-ras0.5 cells [2] = assay: scratch migration assay of vHMEC-ras0.5 monolayers with time-lapse microscopy; settings: TGFβ treated versus untreated cells
[3] = system: COX-2 in vHMEC over expressing TRF2; assay: phospho-p38 inhibitor treatment of vHMEC over expressing TRF2; COX-2 by Q-PCR and immunoblot; settings: early passage vHMEC expressing TRF2, SB203580 24 hrs
From the text: Cell Culture: Human mammary epithelial cells (vHMEC) were isolated from reduction mammoplasty (RM) of four individuals RM9, RM15, RM16 and RM18. HMEC undergo a spontaneous proliferation barrier between 8 and 12 population doublings. Variant human mammary epithelial cells (vHMEC) escape this growth barrier and have silenced p16 through promoter methylation. Cells were propagated in 2D cultures in modified MCBD 170 media (MEGM, Lonza) as previously described (Romanov et al, 2001; Hammond et al 1984). All experiments were performed on exponentially growing early passage vHMEC (between 13 to 20 population doublings); RM9, 15, 16 and 18 cease to expand in cell number at population doublings 45, 60, 50 and 53, respectively. […]
(§1) Quantitative PCR: Total RNA was isolated from cells and cDNA synthesized using standard methods. cDNA was subsequently used for quantitative real-time PCR using the standard curve method. […]
(§2) Western Blotting, ELISA and Immunofluorescence: Cell pellets were lysed in T-PER buffer (Pierce). […] Activin A protein levels were measured using the Duo-Set Activin ELISA kit (R&D Systems) following the manufacturer's directions. […] Levels of activin A were determined in cells from all four donors. […] The mean fluorescent intensity of γH2AX signal (voxels) in each nucleus was determined with the Volocity 4.0.0 software package (Improvision) on Z-stacks. […]

[4] = system: COX-2 and phospho-p38 in vHMEC; assay: exogenous activin A treatment of vHMEC; COX-2 and phospho-p38 by Q-PCR and immunoblot; settings: exogenous activin A 48 hrs
From the text: Cell Culture: Human mammary epithelial cells (vHMEC) were isolated from reduction mammoplasty (RM) of four individuals RM9, RM15, RM16 and RM18. HMEC undergo a spontaneous proliferation barrier between 8 and 12 population doublings. Variant human mammary epithelial cells (vHMEC) escape this growth barrier and have silenced p16 through promoter methylation. Cells were propagated in 2D cultures in modified MCBD 170 media (MEGM, Lonza) as previously described (Romanov et al, 2001; Hammond et al 1984). All experiments were performed on exponentially growing early passage vHMEC (between 13 to 20 population doublings); RM9, 15, 16 and 18 cease to expand in cell number at population doublings 45, 60, 50 and 53, respectively. Activin A (Sigma) and the p38 inhibitor, SB203580, (Sigma) were added to culture media for 48 and 24 hours (respectively) prior to harvest at the doses shown in FIGS. 3 and 4. The same amount of solvent for each molecule was added to the culture media for controls.
as §1, §2
FIGS. 23A-D: Activin A is Up Regulated in vHMEC and Induces COX-2. A. Box plot showing the levels of activin A mRNA measured using Q-PCR in parental vHMEC, or vHMEC over expressing vector (pWP) or TRF2 from 4 donors. p-value was calculated using ANOVA and is shown in the inset. B, Box plot showing the levels of activin A protein measured using ELISA in parental vHMEC or vHMEC over expressing vector (pWP) or TRF2 from 4 donors. […]

[5] = 2 ng/ml TGFβ for 72 h, immunofluorescence

TGF-β
expression of the mesenchymal markers twist, N-cadherin and fibronectin (vHMEC-ras0.5 cells [1]; 2 ng/ml TGFβ for 72 h, flow cytometry and immunoblot): upregulation | E-cadherin expression (vHMEC-ras0.5 cells [1]; [5]): loss | cytokeratin expression (vHMEC-ras0.5 cells [1]; [5]): diminution | β1-integrin expression (vHMEC-ras0.5 cells [1]; [5]): loss | methylation of the E-cadherin promoter (vHMEC-ras0.5 cells [1]; 2 ng/ml TGFβ for 96 h, MSP): not observed | cell morphology (EMT) (vHMEC-ras0.5 cells [1]; 2 ng/ml TGFβ, began within 48 h, clearly manifested by 72 h): morphological change | COX-2 protein after exogenous induction (COX-2 in HMEC; HMEC expressing HPV 16-E7, 24 h exposure to 1 ng/ml TGF-β): elevated | COX-2 protein after exogenous induction (COX-2 in HMEC; HMEC overexpressing cyclin D1, 24 h exposure to 1 ng/ml TGF-β): failed to render cells sensitive | COX-2 protein after exogenous induction (COX-2 in HMEC; HMEC with shRb, 24 h exposure to 1 ng/ml TGF-β): increased | COX-2 protein after exogenous induction (COX-2 in HMEC; p16 silenced HMEC (shp16), 24 h exposure to 1 ng/ml TGF-β): COX-2 upregulation | COX-2 protein after exogenous induction (COX-2 in HMEC; vector control HMEC (pMSCV), 24 h exposure to 1 ng/ml TGF-β): unresponsive | migration into the denuded area (vHMEC-ras0.5 cells [2]): increase in directed migration

C[S+]([O-])c1ccc(-c2nc(-c3ccncc3)c(-c3ccc(F)cc3)[nH]2)cc1 (centres unmarked) [SB203580]
COX-2 mRNA ([3]; Q-PCR, ANOVA p=0.002): marked decrease | COX-2 protein levels ([3]; immunoblot): marked decrease

B1: activin A: a member of the TGF-β superfamily; a homodimer of the activin βA subunits (protein, UniProt P08476 311-426, looked up)
Inhibin beta A chain: GLECDGKVNICCKKQFFVSFKDIGWNDWIIAPSGYHANYCEGECPSHIAGTSGSSLSFHSTVINHYRMRGHSPFANLKSCCVPTKLRPMSMLYYDDGQNIIKKDIQNMIVEECGCS
modifications: Inhibin beta A chain
increase in COX-2 mRNA ([4]; vHMEC from two donors, Q-PCR, ANOVA p=0.001): approximately two-fold | increase in COX-2 protein ([4]; vHMEC from two donors, immunoblot): approximately two-fold | levels of phospho-p38 ([4]; vHMEC, immunoblot): increase
